Series [1] is described as follows: Taste test: compound was tasted for sweetness. The format is in vivo. As for the experimental part:
A mixture of 5-aminomethyltetrazole (0.50 g, 5.05 mmol), sodium hydroxide (0.20 g, 5.00 mmol) and 1.5 ml of water was added to a solution of N-cyclooctyl-N′-(4-cyanophenyl)-S-methylisothiourea (1.52 g, 5.05 mmol) in 15 ml of absolute ethanol. The mixture was heated to 70° for 20 hours. After cooling, the solution was concentrated to dryness and the residue was dissolved in 20 ml of water. The resulting solution was washed with dichloromethane (3 x 20 ml) and then neutralized with a 1 N HCl solution to bring its pH to 7.5. The desired guanidine compound precipitated and was separated out by filtration to give 1.2 g (70%) of white solid. PMR (CD₃OD) δ 7.75 (d, J=8 Hz, 2H), 7.41 (d, J=8 Hz, 2H), 4.70 (s, 2H), 3.82 (m, 1H) and 1.96-1.46 (m, 14H). CMR (DMSO-D6) δ 158.3, 153.3, 144.0, 133.7, 122.0, 119.0, 105.5, 52.8, 37.8, 31.2, 26.8, 24.6 and 22.9. Analysis calculated for C₁₈H₂₄N₈ (0.6 H₂O): C, 59.52; H, 6.99; N, 30.85. Found: C, 59.38; H, 7.07; N, 31.18. The compound was tasted and was sweeet at a concentration of 10 ug/ml.
All the compounds presented in Examples 1 through 42 were tasted and were sweet.

Series [2] in a line: Stability in aqueous sodium phosphate buffer at pH 3, percent remaining by HPLC. The series is classed as physicochemical. The following applies: for half-life: phosphate buffer. As for the experimental part:
Compound 1 above was dissolved in an aqueous sodium phosphate buffer at a pH of 3 at a concentration of 30 µg/ml. The buffer was prepared by adding concentrated phosphoric acid to sodium phosphate […] until the pH was 3.0. This solution was then maintained at 90°C for 6 days. The percent of compound 1 remaining after 6 days was 98%. […] The half-life was estimated to be 177 days in this buffer at 90°C. The stability of the glycine derivative of this compound, i.e., 1′-N-[N-cyclooctylamino(4-cyanophenylimino)methyl]-glycine was determined in the same way as Cpd. 1 except at 70°C and 50°C instead of 90°C. […] The calculated half-life at 90°C is about 2 days.

Counter-ions that a name gives are not always drawn.

The source of these data is patent EP0299533B1, “High potency sweetening agents” (THE NUTRASWEET COMPANY (a Delaware corporation), priority 1987, dated 1989).

A word on the share remaining: it is what is left of the initial amount, in per cent. One may read the half-life as the time needed for the level to fall by half in the phase considered.

Turning to `N#Cc1ccc(N=C(NCc2nnn[nH]2)NC2CCCCCCC2)cc1` [Example 1 HCl salt], the taste when tasted result in series [1] (no concentration given) is “sweet”.
As for `N#Cc1ccc(NC(=NCc2nnn[nH]2)NC2CCCCCCC2)cc1` [Example 1, 1'-N-[N-Cyclooctylamino (4-Cyanophenylimino)methyl]-5-Aminomethyltetrazole], the “concentration at which the compound was tasted and was sweet” value in series [1] turned out to be 10 µg/mL. The share remaining at 144 h in series [2] (aqueous sodium phosphate buffer pH 3, 30 µg/ml, 90°C, 6 days, HPLC, read-out: percent of compound remaining after 6 days) amounted to 98%. Besides, in series [2] (pH 3, buffer pH 3, 90°C, estimated), the half-life is 177 days.
For the compound `N#Cc1ccc(NC(=NCc2nnn[nH]2)NC2CC3CCC(=O)CC3C2)cc1` (stereo not drawn) [Example 42, 1′-N-[N′-2-Amino-6-oxo-cis-hydrindane (4-Cyanophenylimino)methyl]-5-Aminomethyltetrazole], in series [1], the “concentration at which the compound was tasted and was sweet” value was 100 µg/mL.
As for `N#Cc1ccc(NC(=NCC(=O)O)NC2CCCCCCC2)cc1` [glycine derivative, 1′-N-[N-cyclooctylamino(4-cyanophenylimino)methyl]-glycine, reference compound], the half-life in series [2] (pH 3, buffer pH 3, 50°C) is 13 days; in series [2] (pH 3, buffer pH 3, 70°C) it was 5 days.
